Source: patent US11225503B2, “Crystobactamides” (HELMHOLTZ-ZENTRUM FÜR INFEKTIONSFORSCHUNG GMBH, priority 2013, dated 2022)
Values after ≈ are worked out from the molar mass of the structure shown.

Experiments:
[1] = tested on: Staphylococcus aureus ATCC29213; assay: Susceptibility testing, MIC microdilution; type: cell-based
Protocol: (§1) Bacterial wildtype strains used in susceptibility assays were either part of our strain collection or purchased from the German Collection of Microorganisms and Cell Cultures (DSMZ) or from the American Type Culture Collection (ATCC). E. coli strain WT^[6] and E. coli mutants were kindly provided by Prof. Dr. P. Heisig, Pharmaceutical Biology and Microbiology, University of Hamburg.
(§2) MIC values were determined in microdilution assays. Overnight cultures were diluted in the appropriate growth medium to achieve an inoculum of 10^4-10^6 cfu/mL. Yeasts were grown in Myc medium (1% phytone peptone, 1% glucose, 50 mM HEPES, pH 7.0), S. pneumonia and E. faecalis in tryptic soy broth (TSB: 1.7% peptone casein, 0.3% peptone soymeal, 0.25% glucose, 0.5% NaCl, 0.25% K2HPO4; pH 7.3); M. smegmatis in Middlebrook 7H9 medium supplemented with 10% Middlebrook ADC enrichment and 2 ml/l glycerol). All other listed bacteria were grown in Müller-Hinton broth (0.2% beef infusion solids, 1.75% casein hydrolysate, 0.15% starch, pH 7.4). Cystobactamides and reference drugs were added directly to the cultures in sterile 96-well plates as duplicates and serial dilutions were prepared. Microorganisms were grown on a microplate shaker (750 rpm, 30-37° C., 18-48 h), except S. pneumonia, which was grown at non-shaking conditions (37° C., 5% CO2, 18 h). Growth inhibition was assessed by visual inspection and the MIC was defined as the lowest concentration of compound that inhibited visible growth.

[2] = tested on: Pseudomonas aeruginosa ATCC27853; assay: Susceptibility testing, MIC microdilution; type: cell-based
Protocol: as §1, §2

[3] = tested on: Micrococcus luteus DSM-1790; assay: Susceptibility testing, MIC microdilution; type: cell-based; settings: Micrococcus luteus, DSM1790
Protocol: as §1, §2

[4] = tested on: Escherichia coli DSM-26863 (tolC3); assay: Susceptibility testing, MIC microdilution; type: cell-based; settings: Escherichia coli, DSM26863
Protocol: as §1, §2

[5] = tested on: Escherichia coli ATCC35218; assay: Susceptibility testing, MIC microdilution; type: cell-based
Protocol: as §1, §2

[6] = tested on: Klebsiella pneumoniae DSM-30104; assay: Susceptibility testing, MIC microdilution; type: cell-based; settings: Klebsiella pneumoniae, DSM30104
Protocol: as §1, §2

[7] = tested on: Escherichia coli ATCC25922; assay: Susceptibility testing, MIC microdilution; type: cell-based
Protocol: as §1, §2

[8] = tested on: Enterobacter aerogenes DSM-30053; assay: Susceptibility testing, MIC microdilution; type: cell-based; settings: Klebsiella aerogenes, DSM30053
Protocol: as §1, §2

[9] = tested on: Acinetobacter baumannii DSM-30008; assay: Susceptibility testing, MIC microdilution; type: cell-based; settings: Acinetobacter baumannii, DSM30008
Protocol: as §1, §2

[10] = tested on: Streptococcus pneumoniae DSM-20566; assay: Susceptibility testing, MIC microdilution; type: cell-based; settings: Streptococcus pneumoniae, DSM20566
Protocol: as §1, §2

[11] = tested on: Burkholderia cenocepacia DSM-16553; assay: Susceptibility testing, MIC microdilution; type: cell-based; settings: Burkholderia cenocepacia, DSM16553
Protocol: as §1, §2

[12] = tested on: Enterococcus faecalis ATCC29212; assay: Susceptibility testing, MIC microdilution; type: cell-based
Protocol: as §1, §2

[13] = tested on: Bacillus subtilis DSM-10; assay: Susceptibility testing, MIC microdilution; type: cell-based; settings: Bacillus subtilis, DSM10
Protocol: as §1, §2

[14] = tested on: Escherichia coli DSM-12242 (NAL^R); assay: Susceptibility testing, MIC microdilution; type: cell-based; settings: Escherichia coli, DSM12242
Protocol: as §1, §2

[15] = tested on: Candida albicans DSM-1665; assay: Susceptibility testing, MIC microdilution; type: cell-based; settings: Candida albicans, DSM1665
Protocol: as §1, §2

[16] = tested on: Pichia anomala DSM-6766; assay: Susceptibility testing, MIC microdilution; type: cell-based; settings: Hansenula anomala, DSM6766
Protocol: as §1, §2

[17] = tested on: Chromobacterium violaceum DSM-30191; assay: Susceptibility testing, MIC microdilution; type: cell-based; settings: Chromobacterium violaceum, DSM30191
Protocol: as §1, §2

[18] = tested on: Pseudomonas aeruginosa PA14; assay: Susceptibility testing, MIC microdilution; type: cell-based
Protocol: as §1, §2

[19] = tested on: Mycobacterium smegmatis mc^2155 ATCC700084; assay: Susceptibility testing, MIC microdilution; type: cell-based; settings: Mycolicibacterium smegmatis, ATCC700084|MC^2155
Protocol: as §1, §2

[20] = tested on: Escherichia coli DSM-1116; assay: Susceptibility testing, MIC microdilution; type: cell-based; settings: Escherichia coli, DSM1116
Protocol: as §1, §2

[21] = tested on: E. coli strain WT III (marR Δ74 bp); assay: Susceptibility of mutant E. coli strains, MIC; type: cell-based; settings: Escherichia coli
Protocol: as §1, §2

[22] = target: T1, H. sapiens topoisomerase II (Homo sapiens, UniProt P11388); assay: Topoisomerase II relaxation (inhibition) assay; type: biochemical; settings: for IC50: H. sapiens Topoisomerase II inhibition assay, read-out: IC50
T1 construct: purchased Inspiralis (Norwich, UK)
T1 sequence (P11388 whole entry): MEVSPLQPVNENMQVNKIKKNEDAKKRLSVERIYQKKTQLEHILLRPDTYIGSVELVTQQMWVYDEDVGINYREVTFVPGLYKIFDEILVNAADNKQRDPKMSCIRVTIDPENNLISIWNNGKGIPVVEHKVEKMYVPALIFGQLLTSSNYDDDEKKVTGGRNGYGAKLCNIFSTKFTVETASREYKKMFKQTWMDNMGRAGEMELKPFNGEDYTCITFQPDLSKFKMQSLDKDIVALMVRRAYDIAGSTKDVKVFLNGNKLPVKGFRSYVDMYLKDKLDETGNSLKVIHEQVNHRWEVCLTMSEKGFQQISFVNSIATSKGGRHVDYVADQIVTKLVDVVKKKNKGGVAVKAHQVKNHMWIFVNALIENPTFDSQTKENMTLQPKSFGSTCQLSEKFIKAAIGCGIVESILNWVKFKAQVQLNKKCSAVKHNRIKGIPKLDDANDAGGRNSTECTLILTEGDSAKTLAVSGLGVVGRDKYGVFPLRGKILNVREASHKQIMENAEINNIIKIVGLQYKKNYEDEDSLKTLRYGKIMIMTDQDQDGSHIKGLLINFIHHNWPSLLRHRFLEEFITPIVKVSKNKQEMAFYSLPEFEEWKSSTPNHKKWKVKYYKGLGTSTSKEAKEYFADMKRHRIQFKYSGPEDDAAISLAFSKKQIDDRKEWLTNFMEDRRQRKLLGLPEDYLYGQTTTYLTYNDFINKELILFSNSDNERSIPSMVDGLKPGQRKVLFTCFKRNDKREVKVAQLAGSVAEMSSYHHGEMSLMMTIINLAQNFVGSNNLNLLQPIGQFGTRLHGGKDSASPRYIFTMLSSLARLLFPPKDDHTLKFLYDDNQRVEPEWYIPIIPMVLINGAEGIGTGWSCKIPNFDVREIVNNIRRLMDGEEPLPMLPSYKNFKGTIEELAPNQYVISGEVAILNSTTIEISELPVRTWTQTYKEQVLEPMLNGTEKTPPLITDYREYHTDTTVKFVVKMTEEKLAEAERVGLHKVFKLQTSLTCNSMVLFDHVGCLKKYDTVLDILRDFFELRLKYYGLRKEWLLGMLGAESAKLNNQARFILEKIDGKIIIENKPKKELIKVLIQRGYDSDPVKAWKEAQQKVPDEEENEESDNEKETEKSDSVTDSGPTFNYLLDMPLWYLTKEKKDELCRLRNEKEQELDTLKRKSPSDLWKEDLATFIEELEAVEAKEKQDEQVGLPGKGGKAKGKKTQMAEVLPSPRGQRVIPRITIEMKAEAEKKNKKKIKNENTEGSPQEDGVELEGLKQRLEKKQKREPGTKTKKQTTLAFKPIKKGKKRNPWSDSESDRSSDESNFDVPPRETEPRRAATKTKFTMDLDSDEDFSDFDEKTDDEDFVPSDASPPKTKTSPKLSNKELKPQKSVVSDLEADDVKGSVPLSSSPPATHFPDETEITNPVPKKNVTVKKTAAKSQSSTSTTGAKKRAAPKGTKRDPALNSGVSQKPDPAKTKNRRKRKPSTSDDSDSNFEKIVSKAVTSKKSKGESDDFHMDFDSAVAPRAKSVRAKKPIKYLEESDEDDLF
Protocol: The topo II reactions were titrated with varying concentrations of A-D and resolved by agarose gel electrophoresis. For IC50 determination the band intensity of the supercoiled plasmid was determined using Adobe Photoshop, plotted vs. [cystobactamide] and fitted using Hill's equation.
(§3) Following natural product concentrations were used in the assay:
Control reactions were: no enzyme and a standard reaction in presence of 5% (v/v) DMSO. All reaction samples were equilibrated for 10 minutes at room-temperature in the absence of DNA. Then the relaxed plasmid was added to start the reaction.
To determine IC50 values, the formation of supercoiled (gyrase) or relaxed (topoisomerase I, II IV) plasmid was quantified using Adobe Photoshop (Histogram mode). Plotting of these values versus the compound concentration yielded sigmoidal shaped curves, which were fitted using Hill's equation (Origin Pro 8.5). All determined IC50 values are the averages of three independent experiments.

[23] = target: T2, E. coli gyrase (Escherichia coli, UniProt P0AES4+P0AES6); assay: Gyrase supercoiling (inhibition) assay; type: biochemical
T2 construct: purchased Inspiralis (Norwich, UK)
T2 sequence (P0AES4 whole entry, one chain of several): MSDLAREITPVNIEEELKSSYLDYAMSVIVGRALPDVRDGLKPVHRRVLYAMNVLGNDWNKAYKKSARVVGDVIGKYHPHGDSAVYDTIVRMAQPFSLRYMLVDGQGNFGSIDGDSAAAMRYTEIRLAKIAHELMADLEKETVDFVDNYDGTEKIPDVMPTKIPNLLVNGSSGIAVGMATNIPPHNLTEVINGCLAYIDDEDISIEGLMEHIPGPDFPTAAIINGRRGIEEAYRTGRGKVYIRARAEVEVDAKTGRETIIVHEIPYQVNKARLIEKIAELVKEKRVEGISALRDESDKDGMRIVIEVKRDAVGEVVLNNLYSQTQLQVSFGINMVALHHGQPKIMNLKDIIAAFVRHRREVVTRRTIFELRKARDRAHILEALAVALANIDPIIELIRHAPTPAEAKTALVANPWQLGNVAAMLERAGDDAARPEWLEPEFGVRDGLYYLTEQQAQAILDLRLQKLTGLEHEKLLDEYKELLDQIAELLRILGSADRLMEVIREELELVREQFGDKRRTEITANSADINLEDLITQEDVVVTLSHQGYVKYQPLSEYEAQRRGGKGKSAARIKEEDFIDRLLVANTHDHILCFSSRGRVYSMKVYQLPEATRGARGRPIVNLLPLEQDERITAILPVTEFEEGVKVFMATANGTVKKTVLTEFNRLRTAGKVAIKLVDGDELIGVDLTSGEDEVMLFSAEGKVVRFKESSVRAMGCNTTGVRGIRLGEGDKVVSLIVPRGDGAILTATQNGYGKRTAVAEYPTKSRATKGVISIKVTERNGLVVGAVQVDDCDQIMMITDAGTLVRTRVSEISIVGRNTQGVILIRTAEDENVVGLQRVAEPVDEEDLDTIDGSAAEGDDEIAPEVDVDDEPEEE
Protocol: To test the anti-gyrase activity of cystobactamides, commercial E. coli gyrase supercoiling kits (Inspiralis) were used.
For IC50 determination the band intensity of the supercoiled plasmid was determined using Adobe Photoshop, plotted vs. [cystobactamide] and fitted using Hill's equation.
All natural products stock solutions and dilutions were prepared in 100% DMSO and added to the supercoiling reactions giving a final DMSO concentration of 5% (v/v).
as §3
Control reactions were: no enzyme and a standard reaction in presence of 5% (v/v) DMSO.
All reaction samples were equilibrated for 10 minutes at room-temperature in the absence of DNA. Then the relaxed plasmid was added to start the reaction.
To determine IC50 values, the formation of supercoiled (gyrase) or relaxed (topoisomerase I, II IV) plasmid was quantified using Adobe Photoshop (Histogram mode). […] All determined IC50 values are the averages of three independent experiments.

[24] = IC50 in the Gyrase inhibition assay, table, averages of three independent experiments
[25] = apparent IC50, E. coli gyrase, E. coli gyrase 20.5 nM eq. 1 unit

Question: Which MIC [1] does the source give for `CO[C@H](C(=O)Nc1ccc(C(=O)Nc2ccc(C(=O)Nc3ccc(C(=O)O)cc3OC(C)C)c(O)c2OC(C)C)cc1)[C@H](NC(=O)c1ccc(NC(=O)c2ccc([N+](=O)[O-])cc2)cc1)C(=O)O` [cystobactamide A, Cystobactamide A] here?
Answer: 0.12 µg/mL (≈ 0.13 µM)

Question: And the MIC [2]?
Answer: > 59 µg/mL

Question: What about the MIC [3] of the same compound?
Answer: 0.06 µg/mL (≈ 0.0652 µM)

Question: And the MIC [4]?
Answer: 0.5 µg/mL (≈ 0.543 µM)

Question: And the MIC [5]?
Answer: 0.9 µg/mL (≈ 0.977 µM)

Question: And the MIC [6]?
Answer: > 59 µg/mL

Question: And the MIC [7]?
Answer: 0.5 µg/mL (≈ 0.543 µM)

Question: And the MIC [8]?
Answer: > 59 µg/mL

Question: What about the MIC [9] of the same compound?
Answer: 7.4 µg/mL (≈ 8.04 µM)

Question: What about the MIC [10] of the same compound?
Answer: 0.23 µg/mL (≈ 0.25 µM)

Question: And the MIC [11]?
Answer: > 59 µg/mL

Question: And the MIC [12]?
Answer: 0.06 µg/mL (≈ 0.0652 µM)

Question: And the MIC [13]?
Answer: 0.12 µg/mL (≈ 0.13 µM)

Question: And the MIC [14]?
Answer: 0.9 µg/mL (≈ 0.977 µM)

Question: What about the MIC [15] of the same compound?
Answer: > 59 µg/mL

Question: And the MIC [16]?
Answer: > 59 µg/mL

Question: What about the MIC [17] of the same compound?
Answer: > 59 µg/mL

Question: And the MIC [18]?
Answer: > 59 µg/mL

Question: And the MIC [19]?
Answer: > 59 µg/mL

Question: And the MIC [20]?
Answer: 0.9 µg/mL (≈ 0.977 µM)

Question: And the MIC [21]?
Answer: 14.7 µg/mL (≈ 16 µM)

Question: And the IC50 [22]?
Answer: > 160 µM

Question: And the “concentration at which human topo II activity was inhibited (only the highest tested concentration)” value [22]?
Answer: 815 µM

Question: What about the IC50 ([23]; IC50 gyrase, E. coli gyrase) of the same compound?
Answer: 6 µM

Question: What about the IC50 [23, 24] of the same compound?
Answer: 6 µM

Question: What about the IC50 [23, 25] of the same compound?
Answer: 6 µM

Question: What does the source list for `CC(C)Oc1cc(C(=O)O)ccc1NC(=O)c1ccc(NC(=O)c2ccc(N)cc2)c(OC(C)C)c1O` [cystobactamide C, Cystobactamide C]?
Answer: MIC [1]: 8.1 µg/mL (≈ 16 µM); MIC [2]: 65 µg/mL (≈ 128 µM); MIC [3]: 4.1 µg/mL (≈ 8.08 µM); MIC [4]: 4.1 µg/mL (≈ 8.08 µM); MIC [5]: 16.3 µg/mL (≈ 32.1 µM); MIC [6]: 65 µg/mL (≈ 128 µM); MIC [7]: 8.1 µg/mL (≈ 16 µM); MIC [8]: > 33 µg/mL; MIC [9]: 32.5 µg/mL (≈ 64 µM); MIC [10]: 8.1 µg/mL (≈ 16 µM); MIC [11]: > 65 µg/mL; MIC [12]: 4.1 µg/mL (≈ 8.08 µM); MIC [13]: 2 µg/mL (≈ 3.94 µM); MIC [14]: 8.1 µg/mL (≈ 16 µM); MIC [15]: > 65 µg/mL; MIC [16]: > 65 µg/mL; MIC [17]: 16.3 µg/mL (≈ 32.1 µM); MIC [18]: 65 µg/mL (≈ 128 µM); MIC [19]: > 65 µg/mL; MIC [20]: 16.3 µg/mL (≈ 32.1 µM); MIC [21]: 65 µg/mL (≈ 128 µM); IC50 [22]: > 60 µM; concentration at which human topo II activity was inhibited (only the highest tested concentration) [22]: 300 µM; IC50 ([23]; IC50 gyrase, E. coli gyrase): 7.2 µM; IC50 [23, 24]: 7.2 µM; IC50 [23, 25]: 7.7 µM
